Measurements published in patent publication US12065430B2, “Indazole compound or salt thereof” (TAIHO PHARMACEUTICAL CO., LTD., priority 2018, dated 2024).

These molecules were tested against G12C K-Ras4B (1-169) (Homo sapiens (Human), UniProt P01116, G12C) (assay: Test of compounds on whether to bind to KRASG12C (LC-MS compound binding rate)). Conditions: final compound concentration of 2 μM, 1 μM protein, 25° C. for 2 hours.
Method: Test compounds were prepared in the form of a 10 mM DMSO solution.
K-Ras4B (1-169) and G12C K-Ras4B (1-169) proteins were mixed and diluted with a buffer (1×TBS, 0.1 mM TCEP) to prepare individual 1 μM protein solutions. A 10 mM test compound was diluted tenfold with DMSO to make a 1 mM solution, and then diluted fivefold with DMSO to make a 200 μM solution. The 200 μM solution was further diluted fivefold to make a 40 μM solution. When the final compound concentration was 10 μM, 1 μL of a 200 μM test compound was added to 19 μL of a 1 μM protein solution. When the final compound concentration was 2 μM, 1 μL of a 40 μM test compound was added to 19 μL of a 1 μM protein solution. The mixtures were stored in an incubator at 25° C. for 2 hours, and 80 μL of a 1×TBS solution containing 0.2% formic acid was added thereto to end the reaction, followed by LC-MS measurement. LC-MS measurement was performed using Xevo G2-S Q-Tof manufactured by Waters, and reverse-phase chromatography was performed with a desalting column. A mass spectrum of positive ions was obtained by electrospray. For a mass spectrum, a spectrum of a polyvalent ion was collectively converted to a molecular weight by using OpenLynx software by the MaxEnt technique, and a compound binding rate was obtained from the ratio of a signal intensity that corresponds to the molecular weight of a protein to a signal intensity that corresponds to the molecular weight of a compound binding to the protein.
By obtaining the compound binding rate for K-Ras4B (1-169) and the compound binding rate for G12C K-Ras4B (1-169) at the same time, information of the selectivity for G12C K-Ras4B (1-169) was obtained at the same time.
The test compounds were measured at their final compound concentration of 2 μM. […] Almost no compounds of the present invention binded to K-Ras4B (1-169). The “binding rate” (%) for each of K-Ras4B (1-169) and G12C K-Ras4B (1-169) refers to the ratio of the signal intensity of binded forms to the sum of the signal intensity of non-binded forms and the signal intensity of binded forms.

Structure (SMILES) | binding rate for G12C K-Ras4B (1-169)
C=CC(=O)N1C[C@@H](NC(=O)c2c(C)nc(CNc3n[nH]c4cc(Cl)c(C(C)(C)C)cc34)n2C)[C@H]1C (relative stereo) [Example 52, N-((2R*,3R*)-1-acryloyl-2-methylazetidin-3-yl)-2-(((5-(tert-butyl)-6-chloro-1H-indazol-3-yl)amino)methyl)-1,4-dimethyl-1H-imidazole-5-carboxamide] | B (a binding rate of 60% or more and less than 80% is rated “B,”)
C=CC(=O)N1C[C@@H](NC(=O)c2c(C)nc(CNc3n[nH]c4cc(Cl)c(C(C)(C)C)cc34)n2C)[C@@H]1C (relative stereo) [Example 59, N-(trans-1-acryloyl-2-methylazetidin-3-yl)-2-(((5-(tert-butyl)-6-chloro-1H-indazol-3-yl)amino)methyl)-1,4-dimethyl-1H-imidazole-5-carboxamide] | B (a binding rate of 60% or more and less than 80% is rated “B,”)
C=CC(=O)N1CC(NC(=O)c2cnc(CNc3n[nH]c4cc(Cl)c(C(C)(C)C)cc34)n2C)C1 [Example 1, N-(1-acryloylazetidin-3-yl)-2-(((5-(tert-butyl)-6-chloro-1H-indazol-3-yl)amino)methyl)-1-methyl-1H-imidazole-5-carboxamide] | A (a binding rate of 80% or more is rated “A,”)
C=CC(=O)N1CC(NC(=O)c2sc(CNc3n[nH]c4cc(Cl)c(C(C)(C)C)cc34)nc2C)C1 [Example 2, N-(1-acryloylazetidin-3-yl)-2-(((5-(tert-butyl)-6-chloro-1H-indazol-3-yl)amino)methyl)-4-methylthiazole-5-carboxamide] | B (a binding rate of 60% or more and less than 80% is rated “B,”)
C=CC(=O)N1CC(NC(=O)c2cnc(C(C)Nc3n[nH]c4cc(Cl)c(C(C)(C)C)cc34)n2C)C1 (stereo not drawn) [Example 4, N-(1-acryloylazetidin-3-yl)-2-(1-((5-(tert-butyl)-6-chloro-1H-indazol-3-yl)amino)ethyl)-1-methyl-1H-imidazole-5-carboxamide] | C (a binding rate of 40% or more and less than 60% is rated “C,”)
[2H]C([2H])(Nc1n[nH]c2cc(Cl)c(C(C)(C)C)cc12)c1nc(C)c(C(=O)NC2CN(C(=O)C=C)C2)n1C [Example 5, N-(1-acryloylazetidin-3-yl)-2-(((5-(tert-butyl)-6-chloro-1H-indazol-3-yl)amino)methyl-d2)-1,4-dimethyl-1H-imidazole-5-carboxamide] | A (a binding rate of 80% or more is rated “A,”)
C=CC(=O)N1CC(NC(=O)c2c(Cl)c(CNc3n[nH]c4cc(Cl)c(C(C)(C)C)cc34)nn2C)C1 [Example 6, N-(1-acryloylazetidin-3-yl)-3-(((5-(tert-butyl)-6-chloro-1H-indazol-3-yl)amino)methyl)-4-chloro-1-methyl-1H-pyrazole-5-carboxamide] | B (a binding rate of 60% or more and less than 80% is rated “B,”)
C=CC(=O)N1CC(NC(=O)c2csc(CNc3n[nH]c4cc(Cl)c(C(C)(C)C)cc34)n2)C1 [Example 7, N-(1-acryloylazetidin-3-yl)-2-(((5-(tert-butyl)-6-chloro-1H-indazol-3-yl)amino)methyl)thiazole-4-carboxamide] | D (a binding rate of 20% or more and less than 40% is rated “D,”)
C=CC(=O)N1CC(NC(=O)c2cnc(CNc3n[nH]c4cc(Cl)c(C(C)(C)C)cc34)s2)C1 [Example 8, N-(1-acryloylazetidin-3-yl)-2-(((5-(tert-butyl)-6-chloro-1H-indazol-3-yl)amino)methyl)thiazole-5-carboxamide] | B (a binding rate of 60% or more and less than 80% is rated “B,”)
C=CC(=O)N1CC(NC(=O)c2cc(CNc3n[nH]c4cc(Cl)c(C(C)(C)C)cc34)nn2C)C1 [Example 9, N-(1-acryloylazetidin-3-yl)-3-(((5-(tert-butyl)-6-chloro-1H-indazol-3-yl)amino)methyl)-1-methyl-1H-pyrazole-5-carboxamide] | D (a binding rate of 20% or more and less than 40% is rated “D,”)
C=CC(=O)N1CC(NC(=O)c2c(C)c(CNc3n[nH]c4cc(Cl)c(C(C)(C)C)cc34)nn2C)C1 [Example 10, N-(1-acryloylazetidin-3-yl)-3-(((5-(tert-butyl)-6-chloro-1H-indazol-3-yl)amino)methyl)-1,4-dimethyl-1H-pyrazole-5-carboxamide] | B (a binding rate of 60% or more and less than 80% is rated “B,”)
C=CC(=O)N1CC(NC(=O)c2oc(CNc3n[nH]c4cc(Cl)c(C(C)(C)C)cc34)nc2C)C1 [Example 11, N-(1-acryloylazetidin-3-yl)-2-(((5-(tert-butyl)-6-chloro-1H-indazol-3-yl)amino)methyl)-4-methyloxazole-5-carboxamide] | B (a binding rate of 60% or more and less than 80% is rated “B,”)
C=CC(=O)N1CC(NC(=O)c2c(C)nc(CNc3n[nH]c4cc(Cl)c(C(C)(C)C)cc34)n2CC)C1 [Example 12, N-(1-acryloylazetidin-3-yl)-2-(((5-(tert-butyl)-6-chloro-1H-indazol-3-yl)amino)methyl)-1-ethyl-4-methyl-1H-imidazole-5-carboxamide] | B (a binding rate of 60% or more and less than 80% is rated “B,”)
C=CC(=O)N1CC(NC(=O)c2c(C)nc(CNc3n[nH]c4cc(Cl)c(C(C)(C)C)cc34)n2CCOC)C1 [Example 14, N-(1-acryloylazetidin-3-yl)-2-(((5-(tert-butyl)-6-chloro-1H-indazol-3-yl)amino)methyl)-1-(2-methoxyethyl)-4-methyl-1H-imidazole-5-carboxamide] | B (a binding rate of 60% or more and less than 80% is rated “B,”)
C=CC(=O)N1CC(NC(=O)c2c(C)nc(CNc3n[nH]c4cc(Cl)c(C(C)(C)C)cc34)n2Cc2ccccc2)C1 [Example 15, N-(1-acryloylazetidin-3-yl)-1-benzyl-2-(((5-(tert-butyl)-6-chloro-1H-indazol-3-yl)amino)methyl)-4-methyl-1H-imidazole-5-carboxamide] | A (a binding rate of 80% or more is rated “A,”)
C=CC(=O)N1CC(NC(=O)c2c(C)nc(CNc3n[nH]c4cc(Cl)c(C(C)(C)C)cc34)n2CCN(C)C)C1 [Example 16, N-(1-acryloylazetidin-3-yl)-2-(((5-(tert-butyl)-6-chloro-1H-indazol-3-yl)amino)methyl)-1-(2-(dimethylamino)ethyl)-4-methyl-1H-imidazole-5-carboxamide] | B (a binding rate of 60% or more and less than 80% is rated “B,”)
C=CC(=O)N1CC(NC(=O)c2c(C)nc(CNc3n[nH]c4cc(Cl)c(C(C)(C)C)cc34)n2C2CCCC2)C1 [Example 17, N-(1-acryloylazetidin-3-yl)-2-(((5-(tert-butyl)-6-chloro-1H-indazol-3-yl)amino)methyl)-1-cyclopentyl-4-methyl-1H-imidazole-5-carboxamide] | B (a binding rate of 60% or more and less than 80% is rated “B,”)
C=CC(=O)N1CC(NC(=O)c2c(C)nc(CNc3n[nH]c4cc(Cl)c(C(C)(C)C)cc34)n2CCCC)C1 [Example 18, N-(1-acryloylazetidin-3-yl)-1-butyl 2-(((5-(tert-butyl)-6-chloro-1H-indazol-3-yl)amino)methyl)-4-methyl-1H-imidazole-5-carboxamide] | B (a binding rate of 60% or more and less than 80% is rated “B,”)
C=CC(=O)N1CC(NC(=O)c2c(C)nc(CNc3n[nH]c4cc(Cl)c(C(C)(C)C)cc34)n2CCC)C1 [Example 19, N-(1-acryloylazetidin-3-yl)-2-(((5-(tert-butyl)-6-chloro-1H-indazol-3-yl)amino)methyl)-4-methyl-1-propyl-1H-imidazole-5-carboxamide] | A (a binding rate of 80% or more is rated “A,”)
C=CC(=O)N1CC(NC(=O)c2c(C)nc(CNc3n[nH]c4cc(Cl)c(C(C)(C)C)cc34)n2C(C)CC)C1 (stereo not drawn) [Example 20, N-(1-acryloylazetidin-3-yl)-1-(sec-butyl)-2-(((5-(tert-butyl)-6-chloro-1H-indazol-3-yl)amino)methyl)-4-methyl-1H-imidazole-5-carboxamide] | A (a binding rate of 80% or more is rated “A,”)
C=CC(=O)N1CC(NC(=O)c2c(C)nc(CNc3n[nH]c4cc(Cl)c(C(C)(C)C)cc34)n2C(F)F)C1 [Example 21, N-(1-acryloylazetidin-3-yl)-2-(((5-(tert-butyl)-6-chloro-1H-indazol-3-yl)amino)methyl)-1-(difluoromethyl)-4-methyl-1H-imidazole-5-carboxamide] | B (a binding rate of 60% or more and less than 80% is rated “B,”)
